Assays:
[1] = target: T1, Human Indoleamine 2,3-dioxygenase (IDO) (Homo sapiens, UniProt P14902); test: Human IDO enzymatic assay (kynurenine level); format: biochemical; conditions: 6 nM IDO, 10 μM L-Trp; geometric mean; read-out: IDO1 GMean: IC50 (μM) (Biochemical Assay)
T1 construct: His tag (N); made in house; host or cells: E. coli
Summary of the method: (§1)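 IDO conditions: 6 nM His-IDO, 10 μM L-Trp, 5 μM methylene blue, 20 min, RT. TDO conditions: 1 nM His-TDO, 350 μM L-Trp, 0.4 μM methylene blue, 70 min, RT. Both used pH 6.5 phosphate plus ascorbate/catalase, TCA stop at 50° C, kynurenine readout, nonlinear-regression IC50.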

[2] = target: T2, Human Tryptophan 2,3-dioxygenase (TDO) (Homo sapiens, UniProt P48775); test: Human TDO enzymatic assay (kynurenine level); format: biochemical; conditions: 1 nM TDO, 350 μM L-Trp; geometric mean; read-out: TDO GMean: IC50 (μM) (Biochemical Assay)
T2 construct: His tag (N); made in house; host or cells: E. coli
Summary of the method: as §1

[3] = target: T3, human IDO (IDO1-expressing HEK293 cells) (Homo sapiens, UniProt P14902); test: Cell based kynurenine assay, IDO1-expressing HEK293 cell clones; conditions: IDO1-expressing HEK293 cells, 24 hours incubation; geometric mean; read-out: HEK293 IDO1 Kynurenine GMean IC50 (μM) (Cellular Assay)
T3 construct: expressed in transfected cells
Summary of the method: (§2)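 Supernatant kynurenine was measured after 24 h exposure of stably transfected HEK293 cells (human IDO1 or TDO, 2.5×10^4/well) to serially diluted compound. Percent inhibition used 0.2% DMSO cell wells as high and media-only wells as low controls; IC50 fitted by nonlinear regression.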

[4] = target: T4, human TDO (TDO-expressing HEK293 cells) (Homo sapiens, UniProt P48775); test: Cell based kynurenine assay, TDO-expressing HEK293 cell clones; conditions: TDO-expressing HEK293 cells, 24 hours incubation; geometric mean; read-out: HEK293 TDO Kynurenine GMean IC50 (μM) (Cellular Assay)
T4 construct: expressed in transfected cells
Summary of the method: as §2

T4 sequence (P48775 whole entry): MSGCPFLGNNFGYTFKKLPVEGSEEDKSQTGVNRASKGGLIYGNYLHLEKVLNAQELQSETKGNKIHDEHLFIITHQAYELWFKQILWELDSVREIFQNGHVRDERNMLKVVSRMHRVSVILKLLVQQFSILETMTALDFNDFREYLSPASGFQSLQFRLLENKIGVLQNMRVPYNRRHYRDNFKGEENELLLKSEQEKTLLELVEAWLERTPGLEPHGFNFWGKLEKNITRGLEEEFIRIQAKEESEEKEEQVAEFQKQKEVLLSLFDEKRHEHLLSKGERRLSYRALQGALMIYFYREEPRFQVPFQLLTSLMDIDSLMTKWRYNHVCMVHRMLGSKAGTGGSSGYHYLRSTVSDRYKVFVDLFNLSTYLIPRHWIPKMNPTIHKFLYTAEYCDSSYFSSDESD
T2 sequence (P48775 whole entry): as above
T1 sequence (P14902 whole entry): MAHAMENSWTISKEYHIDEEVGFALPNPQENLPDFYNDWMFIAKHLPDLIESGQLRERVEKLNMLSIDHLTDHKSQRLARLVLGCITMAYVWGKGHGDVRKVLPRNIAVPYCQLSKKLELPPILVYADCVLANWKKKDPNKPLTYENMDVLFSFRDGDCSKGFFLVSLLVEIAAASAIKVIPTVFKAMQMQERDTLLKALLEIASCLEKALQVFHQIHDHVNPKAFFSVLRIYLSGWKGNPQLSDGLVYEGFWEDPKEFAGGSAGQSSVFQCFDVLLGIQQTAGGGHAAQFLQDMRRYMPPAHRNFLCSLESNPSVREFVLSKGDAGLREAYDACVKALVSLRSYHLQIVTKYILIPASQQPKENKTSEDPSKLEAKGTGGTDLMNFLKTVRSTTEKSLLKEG
T3 sequence (P14902 whole entry): as above

| IC50 [1] [µM] | IC50 [2] [µM] | IC50 [3] [µM] | IC50 [4] [µM] | SMILES |
| --- | --- | --- | --- | --- |
| 0.0001 to 10 | 0.0001 to 10 | 0.0001 to 10 | 0.0001 to 10 | CC(C)(C1CCN(C(=O)c2c(F)cccc2Cl)CC1)C(O)c1cc(Cl)cc2cn[nH]c12 (stereo not drawn) [Compound P-0369, (4-(1-(5-chloro-1H-indazol-7-yl)-1-hydroxy-2-methylpropan-2-yl)piperidin-1-yl)(2-chloro-6-fluorophenyl) methanone] |
| 0.0001 to 10 | 0.0001 to 10 | 0.0001 to 10 | 0.0001 to 10 | CC(C)(C)OC(=O)N1CCC(C(C)(C)C(O)c2c(F)c(Cl)cc3cn[nH]c23)CC1 (stereo not drawn) [Compound P-0370, tert-butyl 4-(1-(5-chloro-6-fluoro-1H-indazol-7-yl)-1-hydroxy-2-methylpropan-2-yl)piperidine-1-carboxylate] |
| 10 to 100 | 0.0001 to 10 | > 10 | 0.0001 to 10 | OC1(c2cc(Cl)cc3[nH]ncc23)CC2(CCCCC2)C1 [Compound P-0371, 2-(6-chloro-1H-indazol-4-yl)spiro[3.5] nonan-2-ol] |
| > 200 | 0.0001 to 10 | 0.0001 to 10 | > 10 | OC1(c2cc(Cl)cc3[nH]ncc23)CC2(CCOCC2)C1 [Compound P-0372, 2-(6-chloro-1H-indazol-4-yl)-7-oxaspiro[3.5] nonan-2-ol] |
| 0.0001 to 10 | 0.0001 to 10 | 0.0001 to 10 | 0.0001 to 10 | C[C@@H](NC(=O)N1CCC(C(C)(C)C(O)c2cc(Cl)cc3cn[nH]c23)CC1)c1ccccc1 (stereo partly drawn) [Compound P-0373, 4-(1-(5-chloro-1H-indazol-7-yl)-1-hydroxy-2-methylpropan-2-yl)-N-((R)-1-phenylethyl) piperidine-1-carboxamide] |
| 0.0001 to 10 | 0.0001 to 10 | 0.0001 to 10 | 0.0001 to 10 | CCC(=O)N1CCC(C(F)(F)C(O)c2c(F)c(Cl)cc3cn[nH]c23)CC1 (stereo not drawn) [Compound P-0374, 1-(4-(2-(5-chloro-6-fluoro-1H-indazol-7-yl)-1,1-difluoro-2-hydroxyethyl)piperidin-1-yl) propan-1-one] |
| 0.0001 to 10 | 0.0001 to 10 | 0.0001 to 10 | 0.0001 to 10 | CC(C)CC(=O)N1CCC(C(F)(F)C(O)c2c(F)c(Cl)cc3cn[nH]c23)CC1 (stereo not drawn) [Compound P-0375, 1-(4-(2-(5-chloro-6-fluoro-1H-indazol-7-yl)-1,1-difluoro-2-hydroxyethyl)piperidin-1-yl)-3-methylbutan-1-one] |
| 0.0001 to 10 | 0.0001 to 10 | 0.0001 to 10 | 0.0001 to 10 | COCC(=O)N1CCC(C(F)(F)C(O)c2c(F)c(Cl)cc3cn[nH]c23)CC1 (stereo not drawn) [Compound P-0376, 1-(4-(2-(5-chloro-6-fluoro-1H-indazol-7-yl)-1,1-difluoro-2-hydroxyethyl)piperidin-1-yl)-2-methoxyethan-1-one] |
| 0.0001 to 10 | 0.0001 to 10 | 0.0001 to 10 | 0.0001 to 10 | CC(C)C(=O)N1CCC(C(F)(F)C(O)c2c(F)c(Cl)cc3cn[nH]c23)CC1 (stereo not drawn) [Compound P-0377, 1-(4-(2-(5-chloro-6-fluoro-1H-indazol-7-yl)-1,1-difluoro-2-hydroxyethyl)piperidin-1-yl)-2-methylpropan-1-one] |
| 0.0001 to 10 | 0.0001 to 10 | 0.0001 to 10 | 0.0001 to 10 | O=C(NCC(F)(F)F)N1CCC(C(F)(F)C(O)c2c(F)c(Cl)cc3cn[nH]c23)CC1 (stereo not drawn) [Compound P-0378, 4-(2-(5-chloro-6-fluoro-1H-indazol-7-yl)-1,1-difluoro-2-hydroxyethyl)-N-(2,2,2-trifluoroethyl) piperidine-1-carboxamide] |
| 0.0001 to 10 | 0.0001 to 10 | 0.0001 to 10 | 0.0001 to 10 | NC(=O)N1CCC(C(F)(F)C(O)c2c(F)c(Cl)cc3cn[nH]c23)CC1 (stereo not drawn) [Compound P-0379, 4-(2-(5-chloro-6-fluoro-1H-indazol-7-yl)-1,1-difluoro-2-hydroxyethyl) piperidine-1-carboxamide] |
| 0.0001 to 10 | 0.0001 to 10 | > 10 | 0.0001 to 10 | OC1(c2cc(Cl)cc3cn[nH]c23)C2CC3CC(C2)CC1C3 [Compound P-0380, (1R,2R,5S)-2-(5-chloro-1H-indazol-7-yl)adamantan-2-ol] |
| 0.0001 to 10 | 0.0001 to 10 | 0.0001 to 10 | 0.0001 to 10 | O[C@H](c1cc(Cl)cc2cn[nH]c12)C12CCC(CC1)CC2 [Compound P-0381, (S)-bicyclo[2.2.2] octan-1-yl(5-chloro-1H-indazol-7-yl)methanol] |
| 0.0001 to 10 | > 200 | 0.0001 to 10 | > 10 | O[C@@H](c1cc(Cl)cc2cn[nH]c12)C12CCC(CC1)CC2 [Compound P-0382, (R)-bicyclo[2.2.2] octan-1-yl(5-chloro-1H-indazol-7-yl)methanol] |
| 0.0001 to 10 | 0.0001 to 10 | 0.0001 to 10 | 0.0001 to 10 | CC(C)(C)OC(=O)N1CCC(C(C)(C)[C@H](O)c2c(F)c(Cl)cc3cn[nH]c23)CC1 [Compound P-0383, tert-butyl (S)-4-(1-(5-chloro-6-fluoro-1H-indazol-7-yl)-1-hydroxy-2-methylpropan-2-yl)piperidine-1-carboxylate] |
| 0.0001 to 10 | 0.0001 to 10 | > 10 | > 10 | CC(C)(C)OC(=O)N1CCC(C(C)(C)[C@@H](O)c2c(F)c(Cl)cc3cn[nH]c23)CC1 [Compound P-0384, tert-butyl (R)-4-(1-(5-chloro-6-fluoro-1H-indazol-7-yl)-1-hydroxy-2-methylpropan-2-yl)piperidine-1-carboxylate] |
| 0.0001 to 10 | 0.0001 to 10 | 0.0001 to 10 | 0.0001 to 10 | CC(C)(C1CCN(C(=O)NC(=O)c2ccccc2)CC1)C(O)c1cc(Cl)cc2cn[nH]c12 (stereo not drawn) [Compound P-0385, N-benzoyl-4-(1-(5-chloro-1H-indazol-7-yl)-1-hydroxy-2-methylpropan-2-yl)piperidine-1-carboxamide] |
| 0.0001 to 10 | 0.0001 to 10 | 0.0001 to 10 | 0.0001 to 10 | CC(C)(C1CCN(C(=O)NCc2ccccc2)CC1)C(O)c1cc(Cl)cc2cn[nH]c12 (stereo not drawn) [Compound P-0386, N-benzyl-4-(1-(5-chloro-1H-indazol-7-yl)-1-hydroxy-2-methylpropan-2-yl)piperidine-1-carboxamide] |
| 0.0001 to 10 | 0.0001 to 10 | 0.0001 to 10 | 0.0001 to 10 | CC(C)(C1CCN(C(=O)NC2CCC2)CC1)C(O)c1cc(Cl)cc2cn[nH]c12 (stereo not drawn) [Compound P-0387, 4-(1-(5-chloro-1H-indazol-7-yl)-1-hydroxy-2-methylpropan-2-yl)-N-cyclobutylpiperidine-1-carboxamide] |
| 0.0001 to 10 | 0.0001 to 10 | 0.0001 to 10 | 0.0001 to 10 | COCCNC(=O)N1CCC(C(C)(C)C(O)c2cc(Cl)cc3cn[nH]c23)CC1 (stereo not drawn) [Compound P-0388, 4-(1-(5-chloro-1H-indazol-7-yl)-1-hydroxy-2-methylpropan-2-yl)-N-(2-methoxyethyl) piperidine-1-carboxamide] |
| 0.0001 to 10 | 0.0001 to 10 | 0.0001 to 10 | 0.0001 to 10 | CC(C)(C1CCN(C(=O)Nc2ccccn2)CC1)C(O)c1cc(Cl)cc2cn[nH]c12 (stereo not drawn) [Compound P-0389, 4-(1-(5-chloro-1H-indazol-7-yl)-1-hydroxy-2-methylpropan-2-yl)-N-(pyridin-2-yl)piperidine-1-carboxamide] |

— US10508085B2, “Compounds and methods for IDO and TDO modulation, and indications therefor” (Plexxikon Inc., priority 2016, dated 2019)
